PMC4306950 (Marine Drugs, 2015)

Tests used:
[1] = molecular target: T1, Kv1.4 (mouse LTK fibroblasts stably transfected with Kv1.4) (Homo sapiens, UniProt P22459); assay: Whole-cell patch-clamp electrophysiology on Kv1.4; assay type: cell-based; settings: for block of Kv1.4 at 100 nM: mouse LTK fibroblasts stably transfected with Kv1.4, peptide 100 nM
T1 construct: expressed in transfected cells

[2] = molecular target: T2, mKv1.3 channels stably expressed in mouse L929 fibroblasts (Mus musculus, UniProt P16390); assay: Whole-cell patch-clamp electrophysiology on Kv1.3; assay type: cell-based; settings: mKv1.3 in L929 fibroblasts, 200 ms pulses to 40 mV every 30 s, holding -80 mV, Hill fit, n = 3 to 6 cells per concentration
T2 construct: expressed in transfected cells
Method: Mouse fibroblasts stably expressing homotetramers of Kv1.1 or Kv1.3 were patch-clamped in the whole-cell configuration and steady-state block was measured after addition of different concentrations of the peptides.
(§1) Chips averaged 2–3.5 MΩ and a holding potential of −80 mV was used for all recordings. Series resistance compensation of 80% was used when currents exceeded 2 nA. The external solution was normal Ringer solution containing (in mM): 160 NaCl, 4.5 KCl, 2 CaCl2, 1 MgCl2, 10 Hepes, pH 7.4, 310 mOsm. The internal solution contained (in mM): 145 KF, 10 HEPES, 10 EGTA (ethylene glycol tetraacetic acid), 2 MgCl2, pH 7.2, 300 mOsm. Currents were elicited by repeated 200 ms pulses to 40 mV applied at intervals of 30 s for Kv1.3 and 10 s for Kv1.1. IC50 values were determined by fitting the Hill equation to the reduction of area under the current curve measured at 40 mV in the presence of different concentrations of the peptides (GraphPad Prism software, La Jolla, CA, USA).

[3] = molecular target: T3, hKv1.6 (HEK cells transiently transfected with hKv1.6:eGFP) (Homo sapiens, UniProt P17658); assay: Whole-cell patch-clamp electrophysiology on Kv1.6; assay type: cell-based; settings: for block of Kv1.6 at 100 nM: HEK cells transiently transfected with hKv1.6:eGFP, patched 19 h after transfection, peptide 100 nM
T3 construct: expressed in transfected cells; host or cells: HEK cells, transient, Lipofectamine 2000 (plasmid a gift from Dr. Heike Wulff)
Method: The HEK cells were patched 19 h after transfection.
as §1

[4] = tested on: acute adoptive EAE, animal model of MS mediated by T lymphocytes; settings: cited from earlier work
Text: The Kv1.3 channel was discovered in the early 1980’s by the Chandy and Cahalan labs at the University of California Irvine and the Deutsch lab at the University of Pennsylvania. This K^+ channel, found in T lymphocytes, was the first to be described outside electrically excitable tissues. […] Kv1.3 in T lymphocytes is a voltage-gated homotetrameric membrane protein responsible for controlling the me ...

T3 sequence (P17658 whole entry): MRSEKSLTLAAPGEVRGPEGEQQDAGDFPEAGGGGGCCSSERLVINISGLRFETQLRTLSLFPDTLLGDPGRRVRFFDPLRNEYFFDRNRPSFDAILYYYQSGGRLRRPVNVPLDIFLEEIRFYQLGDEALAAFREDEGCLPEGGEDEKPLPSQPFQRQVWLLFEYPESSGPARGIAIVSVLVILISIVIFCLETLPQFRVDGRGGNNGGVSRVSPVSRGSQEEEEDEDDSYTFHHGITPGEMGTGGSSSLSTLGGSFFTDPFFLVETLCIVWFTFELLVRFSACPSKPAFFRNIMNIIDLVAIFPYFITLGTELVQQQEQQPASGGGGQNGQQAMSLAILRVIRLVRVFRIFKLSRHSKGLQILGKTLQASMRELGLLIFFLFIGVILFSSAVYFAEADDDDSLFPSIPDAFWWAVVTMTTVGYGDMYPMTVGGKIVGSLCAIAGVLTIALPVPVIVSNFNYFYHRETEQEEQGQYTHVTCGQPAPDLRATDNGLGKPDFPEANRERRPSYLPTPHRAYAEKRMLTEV
T2 sequence (P16390 whole entry): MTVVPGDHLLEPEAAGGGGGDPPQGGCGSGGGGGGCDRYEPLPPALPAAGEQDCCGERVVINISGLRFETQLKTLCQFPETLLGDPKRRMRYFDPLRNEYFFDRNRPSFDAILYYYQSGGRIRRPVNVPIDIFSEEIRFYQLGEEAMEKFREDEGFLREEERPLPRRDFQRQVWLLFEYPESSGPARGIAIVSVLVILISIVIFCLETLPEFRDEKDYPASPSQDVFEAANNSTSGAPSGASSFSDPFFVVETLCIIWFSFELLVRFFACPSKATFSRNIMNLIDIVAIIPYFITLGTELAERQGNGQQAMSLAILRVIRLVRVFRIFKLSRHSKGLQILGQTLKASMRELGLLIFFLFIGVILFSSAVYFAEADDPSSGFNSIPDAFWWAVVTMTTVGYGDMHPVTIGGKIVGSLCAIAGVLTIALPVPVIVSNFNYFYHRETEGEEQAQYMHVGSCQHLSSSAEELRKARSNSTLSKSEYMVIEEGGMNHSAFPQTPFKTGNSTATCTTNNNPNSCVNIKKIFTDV
T1 sequence (P22459 whole entry): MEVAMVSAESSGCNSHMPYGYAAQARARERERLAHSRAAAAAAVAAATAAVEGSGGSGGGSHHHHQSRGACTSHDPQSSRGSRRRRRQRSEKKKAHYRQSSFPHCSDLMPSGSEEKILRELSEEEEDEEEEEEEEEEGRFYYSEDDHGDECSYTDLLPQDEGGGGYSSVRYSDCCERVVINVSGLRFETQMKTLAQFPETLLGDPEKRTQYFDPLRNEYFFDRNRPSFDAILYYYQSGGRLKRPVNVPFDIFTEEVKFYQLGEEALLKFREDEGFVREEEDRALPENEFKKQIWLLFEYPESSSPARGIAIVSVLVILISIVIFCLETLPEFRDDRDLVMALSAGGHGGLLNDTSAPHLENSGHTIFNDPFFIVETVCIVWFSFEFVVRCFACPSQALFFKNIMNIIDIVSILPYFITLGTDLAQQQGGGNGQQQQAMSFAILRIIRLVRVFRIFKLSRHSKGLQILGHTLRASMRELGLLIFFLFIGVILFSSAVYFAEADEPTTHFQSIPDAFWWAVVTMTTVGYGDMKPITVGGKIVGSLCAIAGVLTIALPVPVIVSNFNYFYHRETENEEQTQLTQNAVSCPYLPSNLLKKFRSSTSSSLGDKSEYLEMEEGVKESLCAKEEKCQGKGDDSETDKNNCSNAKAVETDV

Compound | block of Kv1.4 at 100 nM [1] | IC50 [2] | block of Kv1.6 at 100 nM [3] | IC50 [1] | IC50 [3] | effect on acute adoptive EAE [4]
CC[C@H](C)[C@@H]1NC(=O)[C@H](CO)NC(=O)[C@H](Cc2c[nH]cn2)NC(=O)[C@H](CCCCN)NC(=O)[C@@H]2CSSC[C@@H]3NC(=O)[C@H]([C@@H](C)O)NC(=O)[C@H](CCCCN)NC(=O)[C@H](CCCNC(=N)N)NC(=O)[C@H](CSSC[C@H](NC(=O)[C@H](CCCNC(=N)N)NC(=O)[C@H](CO)NC(=O)[C@H](CCCCN)NC(=O)[C@@H]4CCCN4C(=O)[C@H]([C@@H](C)CC)NC(=O)[C@H]([C@@H](C)O)NC(=O)[C@H](CC(=O)O)NC(=O)[C@H]([C@@H](C)CC)NC(=O)[C@@H](NC(=O)[C@H](CO)NC(=O)[C@@H](N)CCCNC(=N)N)CSSC[C@@H](C(=O)N[C@@H](C)C(=O)O)NC(=O)[C@H]([C@@H](C)O)NC(=O)CNC3=O)C(=O)N[C@@H]([C@@H](C)O)C(=O)N[C@@H](C)C(=O)N[C@@H](Cc3ccccc3)C(=O)N[C@@H](CCCCN)C(=O)N2)NC(=O)[C@H](Cc2ccccc2)NC(=O)[C@H](CO)NC(=O)[C@H](CC(C)C)NC(=O)[C@H](CCCNC(=N)N)NC(=O)[C@H](Cc2ccc(O)cc2)NC(=O)[C@H](CCCCN)NC1=O [ShK-235] | <15% block at 100 nM | 0.062 ± 0.0132 nM | ~25% | – | – | –
CC[C@H](C)[C@@H]1NC(=O)[C@@H](NC(=O)[C@H](CO)NC(=O)[C@@H](N)CCCNC(=N)N)CSSC[C@@H](C(=O)N[C@@H](C)C(=O)O)NC(=O)[C@H]([C@@H](C)O)NC(=O)CNC(=O)[C@@H]2CSSC[C@@H]3NC(=O)[C@H](CCCCN)NC(=O)[C@H](Cc4ccccc4)NC(=O)[C@H](C)NC(=O)[C@H]([C@@H](C)O)NC(=O)[C@H](CSSC[C@H](NC(=O)[C@H](Cc4ccccc4)NC(=O)[C@H](CO)NC(=O)[C@H](CC(C)C)NC(=O)[C@H](CCCNC(=N)N)NC(=O)[C@H](Cc4ccc(O)cc4)NC(=O)[C@H](CCCCN)NC(=O)[C@H](CCSC)NC(=O)[C@H](CO)NC(=O)[C@H](Cc4c[nH]cn4)NC(=O)[C@H](CCCCN)NC3=O)C(=O)N[C@@H](CCCNC(=N)N)C(=O)N[C@@H](CCCCN)C(=O)N[C@@H]([C@@H](C)O)C(=O)N2)NC(=O)[C@H](CCCNC(=N)N)NC(=O)[C@H](CO)NC(=O)[C@H](CCCCN)NC(=O)[C@@H]2CCCN2C(=O)[C@H]([C@@H](C)CC)NC(=O)[C@H]([C@@H](C)O)NC(=O)[C@H](CC(=O)O)NC1=O [ShK-234] | <15% block at 100 nM | 0.037 ± 0.0046 nM | ~25% | – | – | –
CC[C@H](C)[C@@H]1NC(=O)[C@@H](NC(=O)[C@H](CO)NC(=O)[C@@H](N)CCCNC(=N)N)CSSC[C@@H](C(=O)O)NC(=O)[C@H]([C@@H](C)O)NC(=O)CNC(=O)[C@@H]2CSSC[C@@H]3NC(=O)[C@H](CCC(N)=O)NC(=O)[C@H](Cc4ccccc4)NC(=O)[C@H](C)NC(=O)[C@H]([C@@H](C)O)NC(=O)[C@H](CSSC[C@H](NC(=O)[C@H](Cc4ccccc4)NC(=O)[C@H](CO)NC(=O)[C@H](CC(C)C)NC(=O)[C@H](CCCNC(=N)N)NC(=O)[C@H](Cc4ccc(O)cc4)NC(=O)[C@H](CCCCN)NC(=O)[C@H](CCSC)NC(=O)[C@H](CO)NC(=O)[C@H](Cc4cnc[nH]4)NC(=O)[C@H](CCCCN)NC3=O)C(=O)N[C@@H](CCCNC(=N)N)C(=O)N[C@@H](CCCCN)C(=O)N[C@@H]([C@@H](C)O)C(=O)N2)NC(=O)[C@H](CCCNC(=N)N)NC(=O)[C@H](CO)NC(=O)[C@H](CCCCN)NC(=O)[C@@H]2CCCN2C(=O)[C@H]([C@@H](C)CC)NC(=O)[C@H]([C@@H](C)O)NC(=O)[C@H](CC(=O)O)NC1=O [ShK, reference compound] | – | 0.0133 ± 0.0014 nM | – | 0.312 ± 0.014 nM | 165 ± 8 nM | –
kaliotoxin | – | – | – | – | – | ameliorate clinical signs
